Measurements as given in patent publication US20150258059A1, “ANTIMICROBIAL AND RADIOPROTECTIVE COMPOUNDS” (BioDiem, Ltd, priority 2001, published 2015).
Values after ≈ are worked out from the molar mass of the structure shown. Where two headings read alike, the source gives them in different places.

Assays:
[1] = system: Conditional pathogenic enterobacteria gram-negative aerobic bacilli; assay type: cell-based; also: key: + sensitive strains; + moderately sensitive strains; − stable strains
[2] = system: Pseudomonas aeruginosa B-601; assay: Sensitivity of strains: suppression of growth; assay type: cell-based; conditions: Compound (1) 1.0%; antibiotics disc method
Escherichia coli M-17 = assay: Sensitivity of strains: suppression of growth; assay type: cell-based; conditions: Compound (1) 1.0%; antibiotics disc method
Escherichia coli B-683 = assay: Sensitivity of strains: suppression of growth; assay type: cell-based; conditions: Compound (1) 1.0%; antibiotics disc method
Escherichia coli B-65 = assay: Sensitivity of strains: suppression of growth; assay type: cell-based; conditions: Compound (1) 1.0%; antibiotics disc method
[3] = system: Enterobacter aerogenes B-679; assay: Sensitivity of strains: suppression of growth; assay type: cell-based; conditions: Compound (1) 1.0%; antibiotics disc method
[4] = system: Enterobacter aerogenes B-687; assay: Sensitivity of strains: suppression of growth; assay type: cell-based; conditions: Compound (1) 1.0%; antibiotics disc method
[5] = system: Citrobacter diversus B-678; assay: Sensitivity of strains: suppression of growth; assay type: cell-based; conditions: Compound (1) 1.0%; antibiotics disc method
[6] = system: Salmonella paratyphi M-16469; assay: Sensitivity of strains: suppression of growth; assay type: cell-based; conditions: Compound (1) 1.0%; antibiotics disc method
Acinetobacter B-681 = assay: Sensitivity of strains: suppression of growth; assay type: cell-based; conditions: Compound (1) 1.0%; antibiotics disc method
Acinetobacter B-676 = assay: Sensitivity of strains: suppression of growth; assay type: cell-based; conditions: Compound (1) 1.0%; antibiotics disc method
Acinetobacter B-677 = assay: Sensitivity of strains: suppression of growth; assay type: cell-based; conditions: Compound (1) 1.0%; antibiotics disc method
Alkaligenes sp. B-689 = assay: Sensitivity of strains: suppression of growth; assay type: cell-based; conditions: Compound (1) 1.0%; antibiotics disc method
Alkaligenes sp. B-667 = assay: Sensitivity of strains: suppression of growth; assay type: cell-based; conditions: Compound (1) 1.0%; antibiotics disc method
[7] = system: Yersinia pseudotuberculosis; assay type: cell-based; conditions: Compound (1) 1.0%; antibiotics disc method
[8] = system: Klebsiella pneumoniae M-A21; assay: Sensitivity of strains: suppression of growth; assay type: cell-based; conditions: Compound (1) 1.0%; antibiotics disc method
[9] = system: Klebsiella pneumoniae M-248; assay: Sensitivity of strains: suppression of growth; assay type: cell-based; conditions: Compound (1) 1.0%; antibiotics disc method
[10] = system: Corynebacterium diphtheriae B-670; assay: Sensitivity of strains: suppression of growth; assay type: cell-based; conditions: Compound (1) 1.0%; antibiotics disc method
[11] = system: Neisseria meningitidis M-6231; assay: Sensitivity of strains: suppression of growth; assay type: cell-based; conditions: Compound (1) 1.0%; antibiotics disc method
[12] = system: Neisseria meningitidis M-A72; assay: Sensitivity of strains: suppression of growth; assay type: cell-based; conditions: Compound (1) 1.0%; antibiotics disc method
[13] = system: Staphylococcus aureus M-12159; assay: Sensitivity of strains: suppression of growth; assay type: cell-based; conditions: Compound (1) 1.0%; antibiotics disc method
[14] = system: Staphylococcus aureus M-209; assay: Sensitivity of strains: suppression of growth; assay type: cell-based; conditions: Compound (1) 1.0%; antibiotics disc method
[15] = system: Staphylococcus aureus B-685; assay: Sensitivity of strains: suppression of growth; assay type: cell-based; conditions: Compound (1) 1.0%; antibiotics disc method
[16] = system: Staphylococcus aureus B-674; assay: Sensitivity of strains: suppression of growth; assay type: cell-based; conditions: Compound (1) 1.0%; antibiotics disc method
[17] = system: Staphylococci epidermidis D-513; assay: Sensitivity of strains: suppression of growth; assay type: cell-based; conditions: Compound (1) 1.0%; antibiotics disc method
[18] = system: Staphylococcus epidermidis BK-30; assay: Sensitivity of strains: suppression of growth; assay type: cell-based; conditions: Compound (1) 1.0%; antibiotics disc method
[19] = system: γ-hemolytic streptococcus B-672; assay: Sensitivity of strains: suppression of growth; assay type: cell-based; conditions: Compound (1) 1.0%; antibiotics disc method
[20] = system: β-hemolytic streptococcus B-624; assay: Sensitivity of strains: suppression of growth; assay type: cell-based; conditions: Compound (1) 1.0%; antibiotics disc method
Mycobact tub. H.37RV = assay: Anti-TB effect, serial double dilution in liquid medium; assay type: cell-based, M tuberculosis; conditions: 10-14 days incubation at 37° C.; read-out: Minimal Inhibitory Concentration
[21] = system: Staphylococcus aureus ATCC 29213; assay: NCCLS broth microdilution MIC/MBC; assay type: cell-based; conditions: for MIC: Staphylococcus aureus, ATCC29213, read-out: MIC
[22] = system: Enterococcus faecalis ATCC 29212; assay: NCCLS broth microdilution MIC/MBC; assay type: cell-based; conditions: for MIC: Enterococcus faecalis, ATCC29212
Haemophilus influenzae = assay: NCCLS broth microdilution MIC/MBC; assay type: cell-based; conditions: Table 9, 35° C., 24 hours
[23] = system: Escherichia coli ATCC 25922; assay: NCCLS broth microdilution MIC/MBC; assay type: cell-based; conditions: for MIC: Escherichia coli, ATCC25922, read-out: MIC
[24] = system: Pseudomonas aeruginosa ATCC 27853; assay: NCCLS broth microdilution MIC/MBC; assay type: cell-based; conditions: for MIC: Pseudomonas aeruginosa, ATCC27853, read-out: MIC
S. aureus = assay: Antibacterial activity in the presence of blood, macrodilution; assay type: cell-based

Compound | Suppression of Growth (+/−) [1] | Suppression of Growth (+/−) [3] | Suppression of Growth (+/−) [4] | Suppression of Growth (+/−) (Acinetobacter B-681) | Suppression of Growth (+/−) (Acinetobacter B-676) | Suppression of Growth (+/−) (Acinetobacter B-677) | Suppression of Growth (+/−) (Alkaligenes sp. B-667) | Suppression of Growth (+/−) [7] | Suppression of Growth (+/−) [8] | Suppression of Growth (+/−) [9] | Suppression of Growth (+/−) [10] | Suppression of Growth (+/−) [11] | Suppression of Growth (+/−) [12] | Suppression of Growth (+/−) [13] | Suppression of Growth (+/−) [14] | Suppression of Growth (+/−) [15] | Suppression of Growth (+/−) [17] | Suppression of Growth (+/−) [18] | Suppression of Growth (+/−) [19] | Suppression of Growth (+/−) [20] | also measured
CO[C@H]1/C=C/O[C@@]2(C)Oc3c(C)c(O)c4c(O)c(c(/C=N/N5CCN(C)CC5)c(O)c4c3C2=O)NC(=O)/C(C)=C\C=C\[C@H](C)[C@H](O)[C@@H](C)[C@@H](O)[C@@H](C)[C@H](OC(C)=O)[C@@H]1C [Antibiotic 10, rifampicin] | − | − | − | + | + | + | + | − | − | − | + | − | − | + | + | + | + | + | − | + | Suppression of Growth (+/−) [2]: −; Suppression of Growth (+/−) (Escherichia coli M-17): −; Suppression of Growth (+/−) (Escherichia coli B-683): −; Suppression of Growth (+/−) (Escherichia coli B-65): −; Suppression of Growth (+/−) [5]: −; Suppression of Growth (+/−) [6]: −; Suppression of Growth (+/−) (Alkaligenes sp. B-689): −; Suppression of Growth (+/−) [16]: −; MIC (Mycobact tub. H.37RV): 0.01 to 0.02 µg/mL (≈ 0.0122 to 0.0243 µM)
[H]/N=C(/N)N[C@H]1[C@H](O)[C@@H](O)[C@H](O[C@@H]2O[C@@H](C)[C@](O)(C=O)[C@H]2O[C@@H]2O[C@@H](CO)[C@H](O)[C@@H](O)[C@@H]2NC)[C@@H](N/C(N)=N\[H])[C@@H]1O [Antibiotic 12, streptomycin] | − | − | − | − | − | − | − | − | − | − | − | − | − | + | + | + | − | − | − | − | MIC (Mycobact tub. H.37RV): 0.5 µg/mL (≈ 0.86 µM)
O=C(O)c1cn(C2CC2)c2cc(N3CCNCC3)c(F)cc2c1=O [Ciprofloxacin] |  |  |  |  |  |  |  |  |  |  |  |  |  |  |  |  |  |  |  |  | MIC ([21]; Table 9, 35° C., 24 hours): 0.25 µg/mL (≈ 0.754 µM); MIC ([21]; Table 17, 2 or 3 replicates): 0.25 µg/mL (≈ 0.754 µM); MMC ([21]; Table 9, 35° C., 24 hours): 0.25 µg/mL; MMC ([21]; Table 17, 2 or 3 replicates): 0.25 µg/mL; MIC ([22]; Table 9, 35° C., 24 hours): 0.5 µg/mL (≈ 1.51 µM); MIC ([22]; Table 17, 2 or 3 replicates): 0.5 µg/mL (≈ 1.51 µM); MMC ([22]; Table 9, 35° C., 24 hours): 0.5 µg/mL; MMC ([22]; Table 17, 2 or 3 replicates): 0.5 µg/mL; MIC (Haemophilus influenzae; Haemophilus influenzae, read-out: MIC): 6 ng/mL (≈ 0.0181 µM); MMC (Haemophilus influenzae): 0.006 µg/mL; MIC ([23]; Table 9, 35° C., 24 hours): 0.02 µg/mL (≈ 0.0604 µM); MIC ([23]; Table 17, 2 or 3 replicates): 0.02 µg/mL (≈ 0.0604 µM); MMC ([23]; Table 9, 35° C., 24 hours): 0.02 µg/mL; MMC ([23]; Table 17, 2 or 3 replicates): 0.02 µg/mL; MIC ([24]; Table 9, 35° C., 24 hours): 0.25 µg/mL (≈ 0.754 µM); MIC ([24]; Table 17, 2 or 3 replicates): 0.25 µg/mL (≈ 0.754 µM); MMC ([24]; Table 9, 35° C., 24 hours): 0.25 µg/mL; MMC ([24]; Table 17, 2 or 3 replicates): 0.25 µg/mL; decrease in activity (S. aureus; in the presence of 10% plasma): 4 fold; decrease in activity (S. aureus; in the presence of whole blood): 2 fold
